ChEMBL document CHEMBL4411300 (Eur J Med Chem, 2019)
Calls of active or inactive are those of the source. The calls are words filed in the database; no cut-off is given here.

Experiments:
[1] = (§1) Hepatotoxicity in Balb/c mouse infected with Trypanosoma cruzi MHOM/Pe/2011/Arequipa DTU 5 trypomastigotes assessed as decrease in ratio of serum AST to GOT level at 20 mg/kg, po once daily for 5 consecutive days starting from day 10 post infection measured on day 16 post infection relative to control; format: toxicity, organism-based; parameters: scale not given: the % may be the effect or the level left; settings: in vivo
Trypanosoma cruzi [2] = assay: Trypanocidal activity against Trypanosoma cruzi MHOM/Pe/2011/Arequipa DTU 5 trypomastigotes derived from infected Balb/c albino mouse after 24 hrs by resazurin dye based assay; format: functional, organism-based; settings: MHOM/Pe/2011/Arequipa DTU 5, 24 h
Trypanosoma cruzi [3] = assay: Trypanocidal activity against Trypanosoma cruzi MHOM/Pe/2011/Arequipa DTU 5 epimastigotes after 48 to 72 hrs by resazurin dye based assay; format: functional, organism-based
Trypanosoma cruzi [4] = assay: Inhibition of Trypanosoma cruzi MHOM/Pe/2011/Arequipa DTU 5 epimastigotes Fe-SOD at 100 uM by UV-Visible spectrophotometric method relative to control
[5] = as §1, with “75” for “10”, “81” for “16”; format: toxicity, organism-based; parameters: scale not given: the % may be the effect or the level left; settings: in vivo
Trypanosoma cruzi [6] = assay: Antitrypanosomal activity against Trypanosoma cruzi MHOM/Pe/2011/Arequipa DTU 5 epimastigotes assessed as effect on parasite glycolytic pathway by measuring increase in glycerol excretion at IC25 after 72 hrs by 1H NMR method; format: functional, organism-based
Trypanosoma cruzi [7] = assay: Trypanocidal activity against Trypanosoma cruzi MHOM/Pe/2011/Arequipa DTU 5 amastigotes infected in African green monkey Vero cells assessed as reduction in number of amastigotes per infected cells at log -0.41 to 1.7 after 72 hrs by Giemsa-staining based assay; format: functional, organism-based
[8] = Cardiotoxicity in Balb/c mouse infected with Trypanosoma cruzi MHOM/Pe/2011/Arequipa DTU 5 trypomastigotes assessed as change in ratio of creatine kinase in muscle to brain at 20 mg/kg, po once daily for 5 consecutive days starting from day 75 post infection measured on day 81 post infection (reference value: 751 U/L); format: toxicity, organism-based; settings: in vivo
[9] = as §1, with “increase” for “decrease”, “75” for “10”, “127” for “16”; format: toxicity, organism-based; settings: in vivo
[10] = Hepatotoxicity in Balb/c mouse infected with Trypanosoma cruzi MHOM/Pe/2011/Arequipa DTU 5 trypomastigotes assessed as increase in ratio of serum ALT to GPT level at 20 mg/kg, po once daily for 5 consecutive days starting from day 10 post infection measured on day 127 post infection by biochemical analysis relative to control; format: toxicity, organism-based; settings: in vivo
Trypanosoma cruzi [11] = assay: (§2) Antitrypanosomal activity against Trypanosoma cruzi MHOM/Pe/2011/Arequipa DTU 5 trypomastigotes infected in Balb/c mouse assessed as reduction in Ig-G level in serum at 20 mg/kg, po pretreated once daily for 5 consecutive days starting from day 75 post infection followed by cyclophosphamide-induced immunosuppression on day 100 post infection every 4 days for a maximum of 3 doses measured on day 127 post infection by ELISA; format: functional, organism-based
Trypanosoma cruzi [12] = assay: Trypanocidal activity against Trypanosoma cruzi TINF/CH/1956/Tulahuen DTU 6 epimastigotes after 48 to 72 hrs by resazurin dye based assay; format: functional, organism-based
[13] = Toxicity in Balb/c mouse assessed as reduction in body mass at 20 mg/kg, po once daily for 5 consecutive days starting from day 75 post infection relative to control; format: organism-based; parameters: scale not given: the % may be the effect or the level left; settings: in vivo
[14] = Selectivity index, ratio of IC50 for African green monkey Vero cells to IC50 for Trypanosoma cruzi MHOM/Pe/2011/Arequipa DTU 5 epimastigotes; format: toxicity; settings: read-out: Ratio IC50
Trypanosoma cruzi [15] = assay: Antitrypanosomal activity against Trypanosoma cruzi MHOM/Pe/2011/Arequipa DTU 5 epimastigotes assessed as effect on parasite glycolytic pathway by measuring decrease in D-lactate excretion at IC25 after 72 hrs by 1H NMR method; format: functional, organism-based
Trypanosoma cruzi [16] = assay: Trypanocidal activity against Trypanosoma cruzi MHOM/Pe/2011/Arequipa DTU 5 amastigotes infected in African green monkey Vero cells assessed as reduction in infected cells after 72 hrs by Giemsa-staining based assay; format: functional, organism-based; settings: MHOM/Pe/2011/Arequipa DTU 5, Vero
[17] = Selectivity index, ratio of IC50 for African green monkey Vero cells to IC50 for Trypanosoma cruzi TINF/CH/1956/Tulahuen DTU 6 trypomastigotes derived from infected Balb/c albino mouse; format: toxicity; settings: read-out: Ratio IC50
Trypanosoma cruzi [18] = assay: Antitrypanosomal activity against Trypanosoma cruzi MHOM/Pe/2011/Arequipa DTU 5 epimastigotes assessed as effect on parasite glycolytic pathway by measuring decrease in succinate excretion at IC25 after 72 hrs by 1H NMR method relative to control; format: functional; parameters: scale not given: the % may be the effect or the level left
[19] = Selectivity index, ratio of IC50 for African green monkey Vero cells to IC50 for Trypanosoma cruzi IRHOD/CO/2008/SN3 DTU 1 epimastigotes; format: toxicity; settings: read-out: Ratio IC50
Trypanosoma cruzi [20] = assay: Inhibition of Trypanosoma cruzi MHOM/Pe/2011/Arequipa DTU 5 epimastigotes Fe-SOD at 50 uM by UV-Visible spectrophotometric method relative to control
[21] = Hepatotoxicity in Balb/c mouse infected with Trypanosoma cruzi MHOM/Pe/2011/Arequipa DTU 5 trypomastigotes assessed as decrease in total bilirubin level at 20 mg/kg, po once daily for 5 consecutive days starting from day 75 post infection measured on day 127 post infection relative to control; format: toxicity, organism-based; parameters: scale not given: the % may be the effect or the level left; settings: in vivo
[22] = (§3) Cardiotoxicity in Balb/c mouse infected with Trypanosoma cruzi MHOM/Pe/2011/Arequipa DTU 5 trypomastigotes assessed as change in serum LDH level at 20 mg/kg, po once daily for 5 consecutive days starting from day 75 post infection measured on day 127 post infection (reference value: 6679 U/L); format: toxicity, organism-based; settings: in vivo
[23] = Hepatotoxicity in Balb/c mouse infected with Trypanosoma cruzi MHOM/Pe/2011/Arequipa DTU 5 trypomastigotes assessed as change in ratio of serum ALT to GPT level at 20 mg/kg, po once daily for 5 consecutive days starting from day 75 post infection measured on day 127 post infection (reference value: 64 U/L); format: toxicity, organism-based; settings: in vivo
Trypanosoma cruzi [24] = assay: as §2, with “parasite-free adipose tissue” for “reduction in Ig-G level in serum”, “PCR method” for “ELISA”; format: functional
[25] = Cardiotoxicity in Balb/c mouse infected with Trypanosoma cruzi MHOM/Pe/2011/Arequipa DTU 5 trypomastigotes assessed as decrease in serum LDH level at 20 mg/kg, po once daily for 5 consecutive days starting from day 75 post infection measured on day 127 post infection relative to control; format: toxicity, organism-based; parameters: scale not given: the % may be the effect or the level left; settings: in vivo
[26] = Hepatotoxicity in Balb/c mouse infected with Trypanosoma cruzi MHOM/Pe/2011/Arequipa DTU 5 trypomastigotes assessed as change in total bilirubin level at 20 mg/kg, po once daily for 5 consecutive days starting from day 75 post infection measured on day 127 post infection (reference value: 0.2 mg/dl); format: toxicity, organism-based; settings: in vivo
Trypanosoma cruzi [27] = assay: as §2, with “parasite-free heart” for “reduction in Ig-G level in serum”, “PCR method” for “ELISA”; format: functional, organism-based
Trypanosoma cruzi [28] = assay: as §2, with “parasite-free brain” for “reduction in Ig-G level in serum”, “PCR method” for “ELISA”; format: functional, organism-based
[29] = as §3, with “Hepatotoxicity” for “Cardiotoxicity”, “alkaline phosphatase” for “serum LDH”, “81” for “127”, “167” for “6679”; format: toxicity, organism-based; settings: in vivo
Trypanosoma cruzi [30] = assay: as §2, with “parasite-free spleen” for “reduction in Ig-G level in serum”, “PCR method” for “ELISA”; format: functional, organism-based

Compound	IC50 (Trypanosoma cruzi [2]) [µM]	IC50 (Trypanosoma cruzi [3]) [µM]	Activity [5]	Activity (Trypanosoma cruzi [6])	Activity (Trypanosoma cruzi [7])	Activity [9]	Activity (Trypanosoma cruzi [11])	IC50 (Trypanosoma cruzi [12]) [µM]	Activity [13] [%]	selectivity ratio [14]	Activity (Trypanosoma cruzi [15])	IC50 (Trypanosoma cruzi [16]) [µM]	selectivity ratio [17]	Activity (Trypanosoma cruzi [18]) [%]	selectivity ratio [19]	Activity [23] [U/L]	Activity (Trypanosoma cruzi [24]) [%]	Activity [25]	other results
Cl.Cl.Cl.Cl.Cl.Cl.c1ccc2nc(CNCCN(CCNCc3ccc4ccccc4n3)CCNCc3ccc4ccccc4n3)ccc2c1	1.2	15.1	<= 10%	Active	Active	<= 10%	inactive	19.5	< 10	110	Active	3.6	890	49	112	–	–	–	Activity [1]: <= 10%; inhibition (Trypanosoma cruzi [4]): 100%; Activity [8]: 751 U/L; Activity [10]: <= 30%; inhibition (Trypanosoma cruzi [20]): 82%; Activity [21]: <= 10%; Activity [22]: 6679 U/L
O=C(Cn1ccnc1[N+](=O)[O-])NCc1ccccc1 [BENZNIDAZOLE]	–	–	–	–	–	<= 10%	–	–	–	–	–	–	–	–	–	64	51.2	<= 10%	–
Cl.Cl.Cl.NCCN(CCN)CCNCc1ccc2c(c1)Cc1ccccc1-2	14.7	26.6	<= 10%	Active	Active	–	Active	30.7	< 10	66.3	Active	8	100	34	91.3	64	16.3	<= 10%	Activity [26]: 0.2 mg/dL; Activity (Trypanosoma cruzi [27]): Active; Activity (Trypanosoma cruzi [28]): Active; Activity [29]: 167 U/L; Activity (Trypanosoma cruzi [30]): Active
